Tested on: Aβ42
Assay: Detection of secreted Aβ42 with Biosource ELISA kit in H4 cells expressing APP695
Format: cell-based
Details: Ab42 lowering, cell based assay; read-out: Ab42 IC50
Protocol: The present invention provides compositions and methods for lowering Aβ42 levels. To test whether compounds and compositions are capable of modulating Aβ levels, a sandwich enzyme-linked immunosorbent assay (ELISA) is employed to measure secreted Aβ (Aβ42 and/or Aβ40) levels. In this example, H4 cells expressing wide type APP695 are seeded at 200,000 cells/per well in 6 well plates, and incubated at 37 degree C. with 5% CO2 overnight. Cells are treated with 1.5 ml medium containing vehicle (DMSO) or a test compound at 1.25 μM, 2.5 μM, 5.0 μM and 10.0 μM (as well as other concentration if desirable) concentration for 24 hours or 48 hours. The supernatant from treated cells is collected into eppendorf tubes and frozen at −80 degree C. for future analysis.
The amyloid peptide standard is reconstituted and frozen samples are thawed. The samples and standards are diluted with appropriate diluents and the plate is washed 4 times with Working Wash Buffer and patted dry on a paper towel. 100 μL per well of peptide standards, controls, and dilutions of samples to be analyzed is added. The plate is incubated for 2 hours while shaking on an orbital plate shaker at RT. The plate is then washed 4 times with Working Wash Buffer and patted dry on a paper towel. Detection Antibody Solution is poured into a reservoir and 100 μL /well of Detection Antibody Solution is immediately added to the plate. The plate is incubated at RT for 2 hours while shaking and then washed four times with Working Wash Buffer and patted dry on a paper towel. Secondary Antibody Solution is then poured into a reservoir and 100 μL /well of Secondary Antibody Solution is immediately added to the plate. The plate is incubated at RT for 2 hours with shaking, washed 5 times with Working Wash Buffer, and patted dry on a paper towel.
100 μL of stabilized chromogen is added to each well and the liquid in the wells begins to turn blue. The plate is incubated for 30 minutes at room temperature and in the dark. 100 μL of stop solution is added to each well and the plate is tapped gently to mix resulting in a change of solution color from blue to yellow. The absorbance of each well is read at 450 nm having blanked the plate reader against a chromogen blank composed of 100 μL each of stabilized chromogen and stop solution. The plate is read within 2 hours of adding the stop solution. The absorbance of the standards is plotted against the standard concentration and the concentrations of unknown samples and controls are calculated.
These compounds were synthesized via the indicated synthetic route. Ab42 IC50 (uM) refers to IC50 value for Ab42 lowering in e.g., the assay described in Example 6.

IC50 [µM] | Compound
16.5 | O=C(O)c1ccc(-n2c(-c3ccccc3)cc3c2CCC(C(F)(F)F)C3)o1 (centres unmarked) [5-(2-phenyl-5-trifluoromethyl 4,5,6,7-tetrahydroindol-1-yl)-furan-2-carboxylic acid]
25 | O=C(O)c1ccc(-n2c(-c3ccccc3)cc3c2CC(C(F)(F)F)CC3)o1 (centres unmarked) [5-(2-phenyl-6-trifluoromethyl 4,5,6,7-tetrahydroindol-1-yl)-furan-2-carboxylic acid]
22 | O=C(O)c1ccc(-n2c(-c3ccccc3)cc3c4ccccc4ccc32)o1 [5-(2-phenylbenzo[e]indol-3-yl)furan-2-carboxylic acid]
40 | O=C(O)c1ccc(-n2c(-c3ccccc3)cc3c2CCC(C2CCCCC2)C3)o1 (centres unmarked) [5-(5-cyclohexyl-2-phenyl-4,5,6,7-tetrahydroindol-1-yl)-furan-2-carboxylic acid]
> 100 | CC1CCc2c(cc(-c3ccccc3)n2-c2ccc(C(=O)O)o2)C1 (centres unmarked) [5-(5-methyl-2-phenyl-4,5,6,7-tetrahydroindol-1-yl) furan-2-carboxylic acid]
> 100 | COC(=O)c1ccc(-n2c(-c3ccccc3)cc3c2CCC(C(C)(C)C)C3)o1 (centres unmarked) [5-(5-tertButyl-2-phenyl-4,5,6,7-tetrahydroindol-1-yl) furan-2-carboxylic acid methyl ester]
3.7 | CC(C)(C)C1CCc2c(cc(-c3ccccc3)n2-c2ccc(C(=O)O)o2)C1 (centres unmarked) [5-(5-tertButyl-2-phenyl-4,5,6,7-tetrahydroindol-1-yl) furan-2-carboxylic acid]
> 100 | CC1CCc2cc(-c3ccccc3)n(-c3ccc(C(=O)O)o3)c2C1 (centres unmarked) [5-(6-methyl-2-phenyl-4,5,6,7-tetrahydroindol-1-yl) furan-2-carboxylic acid]
7.36 | O=C(O)c1ccc(-n2c(-c3ccc(Cl)c(Cl)c3)cc3c2CCCC3C(F)(F)F)o1 (centres unmarked) [5-[2-(3,4-dichlorophenyl)-4-trifluoromethyl-4,5,6,7-tetrahydroindol-1-yl]-furan-2-carboxylic acid]
1.6 | O=C(O)c1ccc(-n2c(-c3ccc(Cl)c(Cl)c3)cc3c2CCC(C(F)(F)F)C3)o1 (centres unmarked) [5-[2-(3,4-dichlorophenyl)-5-trifluoromethyl 4,5,6,7-tetrahydroindol-1-yl]-furan-2-carboxylic acid]
8.9 | O=C(O)c1ccc(-n2c(-c3ccc(Cl)c(Cl)c3)cc3c2CC(C(F)(F)F)CC3)o1 (centres unmarked) [5-[2-(3,4-dichlorophenyl)-6-trifluoromethyl-4,5,6,7-tetrahydroindol-1-yl]-furan-2-carboxylic acid]
7 | O=C(O)c1ccc(-n2c(-c3ccc(Cl)c(Cl)c3)cc3c4ccccc4ccc32)o1 [5-[2-(3,4-dichlorophenyl)-benzo[e]indol-3-yl]-furan-2-carboxylic acid]
> 100 | O=C(O)c1coc(Cn2c(-c3cc(-c4ccccc4)no3)cc3c2CCc2ccccc2-3)c1 [5-[2-(3-phenylisoxazol-5-yl)-4,5-dihydrobenzo[e]indol-3-ylmethyl] furan-3-carboxylic acid]
33 | O=C(O)c1ccc(-n2c(-c3cc(-c4ccccc4)no3)cc3c4ccccc4ccc32)o1 [5-[2-(3-phenylisoxazol-5-yl)-benzo[e]indol-3-yl] furan-2-carboxylic acid]
> 100 | O=C(O)c1coc(Cn2c(-c3cc(-c4ccccc4)no3)cc3c4ccccc4ccc32)c1 [5-[2-(3-phenylisoxazol-5-yl)-benzo[e]indol-3-ylmethyl] furan-3-carboxylic acid]
68 | O=C(O)c1ccc(-n2c(-c3ccc(N4CCOCC4)cc3)cc3c2CCC(C(F)(F)F)C3)o1 (centres unmarked) [5-[2-(4-morpholin-4-yl-phenyl)-5-trifluoromethyl-4,5,6,7-tetrahydroindol-1-yl]-furan-2-carboxylic acid]
21 | O=C(O)c1ccc(-n2c(-c3ccc(C(F)(F)F)cc3)cc3c4ccccc4ccc32)o1 [5-[2-(4-trifluoromethylphenyl)-benzo[e]indol-3-yl]-furan-2-carboxylic acid]
18 | CCC(C)(C)C1CCc2c(cc(-c3cc4ccccc4o3)n2-c2ccc(C(=O)O)o2)C1 (centres unmarked) [5-[2-benzofuran-2-yl-5-(1,1-dimethylpropyl) 4,5,6,7-tetrahydroindol-1-yl]-furan-2-carboxylic acid]
5.1 | CCC(C)(C)C1CCc2c(cc(-c3ccccc3)n2-c2ccc(C(=O)O)o2)C1 (centres unmarked) [5-[5-(1,1-dimethylpropyl)-2-phenyl-4,5,6,7-tetrahydroindol-1-yl]-furan-2-carboxylic acid]
11.7 | CC(C)(C)C1CCc2c(cc(-c3ccc(Cl)c(Cl)c3)n2-c2ccc(C(=O)O)o2)C1 (centres unmarked) [5-[5-tButyl-2-(3,4-dichlorophenyl)-4,5,6,7-tetrahydroindol-1-yl] furan-2-carboxylic acid]
14 | CC(C)(C)C1CCc2c(cc(-c3ccc(C(F)(F)F)cc3)n2-c2ccc(C(=O)O)o2)C1 (centres unmarked) [5-[5-tButyl-2-(4-trifluoromethylphenyl)-4,5,6,7-tetrahydroindol-1-yl] furan-2-carboxylic acid]
63 | CC(C)(C)C1CCc2c(cc(-c3ccccc3)n2-c2nnc[nH]2)C1 (centres unmarked) [5-tButyl-2-phenyl-1-(4H-[1,2,4]triazol-3-yl)-4,5,6,7-tetrahydro-1H-indole]

Same assay, conditions: IC50 value for Ab42 lowering in e.g. the assay described in Example 6; read-out: Ab42 IC50

IC50 [µM] | Compound
55 | O=C(O)c1cccc(-n2c(-c3ccccc3)cc3ccccc32)c1 [Compound 17, 3-(2-phenylindol 1-yl) benzoic acid]
8 | CC(C)(C)C1CCc2c(cc(-c3ccccc3)n2-c2cccc(C(=O)O)c2)C1 (centres unmarked) [Compound 34, 3-(5-tert-butyl-2-phenyl-4,5,6,7-tetrahydroindol-1-yl)benzoic acid]
24 | c1ccc(-c2cc3c(n2-c2cccc(-c4nn[nH]n4)c2)CCc2ccccc2-3)cc1 [Compound 63, 2-phenyl-3-[3-(2H-tetrazol-5-yl)-phenyl]-4,5-dihydro-3H-benzo[e]indole]
54 | O=C(O)C1CCCC(n2c(-c3ccccc3)cc3c4ccccc4ccc32)C1 (centres unmarked) [Compound 66, 3-(2-phenylbenzo[e]indol-3-yl) cyclohexane carboxylic acid]
35 | O=C(O)CCCn1c(-c2ccccc2)cc2c1CCc1ccccc1-2 [Compound 67, 4-(2-phenyl-4,5-dihydrobenzo[e]indol-3-yl) butyric acid]
31 | O=C(O)CCCn1c(-c2ccccc2)cc2c3ccccc3ccc21 [Compound 68, 4-(2-phenyl-benzo[e]indol-3-yl) butyric acid]
45 | O=C(O)c1ccc(-c2cc3c(n2-c2ccccc2)CCc2ccccc2-3)cc1 [Compound 69, 4-(3-phenyl-4,5-dihydro-3H-benzo[e]indol-2-yl) benzoic acid]
50 | O=C(O)c1cccc(-n2c(-c3ccccc3)cc3c2CCC(c2ccccc2)C3)c1 (centres unmarked) [Compound 71, 3-(2,5-diphenyl 4,5,6,7-tetrahydroindol-1-yl) benzoic acid]
20 | CC(C)(C)C1CCc2c(cc(-c3ccccc3)n2-c2cccc(CCC(=O)O)c2)C1 (centres unmarked) [Compound 85, 3-[3-(5-tert-Butyl-2-phenyl 4,5,6,7-tetrahydroindol-1-yl)-phenyl] propionic acid]
30 | O=C(O)CCCc1ccc(-n2c(-c3ccccc3)cc3c2CCCC3)cc1 [Compound 86, 4-[4-(2-phenyl 4,5,6,7-tetrahydroindol-1-yl)-phenyl] butyric acid]
12 | O=C(O)c1cccc(-n2c(-c3ccccc3)cc3c4ccccc4ccc32)c1 [Compound 87, 3-(2-phenylbenzo[e]indol-3-yl) benzoic acid]
27 | CC1CCc2c(cc(-c3ccccc3)n2-c2cccc(CCC(=O)O)c2)C1 (centres unmarked) [Compound 88, 3-[3-(5-methyl-2-phenyl-4,5,6,7-tetrahydroindol-1-yl)-phenyl] propionic acid]
8 | O=C(O)CCCc1ccc(-n2c(-c3ccccc3)cc3c4ccccc4ccc32)cc1 [Compound 89, 4-[4-(2-phenyl-benzo[e]indol-3-yl)-phenyl] butyric acid]
54 | O=C(O)CCc1cccc(-n2c(-c3ccccc3)cc3c2CCCC3)c1 [Compound 90, 3-[3-(2-phenyl-4,5,6,7-tetrahydroindol-1-yl)-phenyl] propionic acid]
3 | CC1CCCc2c1cc(-c1ccccc1)n2-c1cccc(C(=O)O)c1 (centres unmarked) [Compound 91, 3-(4-methyl-2-phenyl-4,5,6,7-tetrahydroindol-1-yl) benzoic acid]
27 | O=C(O)Cc1ccccc1-n1c(-c2ccccc2)cc2c1CCc1ccccc1-2 [Compound 92, [2-(2-phenyl-4,5-dihydrobenzo[e]indol-3-yl)-phenyl] acetic acid]
